Holding throughout (test): microbe, parasite or virus in culture
Test [1] deals with Human immunodeficiency virus 1. To be noted: Human immunodeficiency virus 1, MT4.
Test [2] relates to Human immunodeficiency virus 1. To be noted: Human immunodeficiency virus 1, MT4. This is another data set of the same source.
Test [3] relates to Human immunodeficiency virus 1. To be noted: Human immunodeficiency virus 1, MT4. The source holds these as a separate data set.
Test [4] relates to Human immunodeficiency virus 1. To be noted: Human immunodeficiency virus 1, MT4. This is another data set of the same source.
The subject of test [5] is Human immunodeficiency virus 1. To be noted: Human immunodeficiency virus 1, MT4. The source holds these as a separate data set.
The subject of test [6] is Human immunodeficiency virus 1. To be noted: Human immunodeficiency virus 1, MT4. The source holds these as a separate data set.
The subject of test [7] is Human immunodeficiency virus 1. In kind it is functional, organism-based, MT4.
[8] abbreviates: Human immunodeficiency virus 1, MT4.

Experimental findings from ChEMBL document CHEMBL1133923, “Evolution of anti-HIV drug candidates. Part 3: Diarylpyrimidine (DAPY) analogues” (Bioorg Med Chem Lett, 2001) are described below.

The term IC50 denotes the point on the concentration scale where inhibition reaches its midpoint.

The molecule `Cc1cc(C)c(Nc2nc(Nc3ccc(C#N)cc3)ncc2-c2ccccc2)c(C)c1` came in with a 50% inhibitory concentration (IC50) in test [1] of 24 nM.
In the case of `Cc1cc(Cl)cc(Cl)c1Nc1ccnc(Nc2ccc(C#N)cc2)n1`, the IC50 in test [2] was 13 nM; in test [3] it was 60 nM; in test [1], 1 nM; in test [4] it was above 10000 nM; in test [5] it was 86 nM; in test [6], 18 nM.
In the case of `Cc1cc(C)c(Oc2ccnc(Nc3ccc(C#N)cc3)n2)c(C)c1`, the IC50 in test [2] is 3 nM; in test [3], 22 nM; in test [7] (setting [8]), 1100 nM; in test [1] it was 2.9 nM; in test [4], 8200 nM; in test [5], 55 nM. In test [6], this molecule registered an IC50 of 38 nM.
As to `N#Cc1ccc(Nc2nccc(Nc3c(F)cc(Br)cc3Br)n2)cc1`, the IC50 is 5.7 nM in test [2]; 15 nM in test [3]; 0.6 nM in test [1]; above 10000 nM in test [4]; 64 nM in test [5]; 15 nM in test [6].
In turn, `N#Cc1ccc(Nc2nc(N)nc(Cc3c(Cl)cccc3Cl)n2)cc1` had an IC50 in test [1] of 6 nM.
Take `C=Cc1cnc(Nc2ccc(C#N)cc2)nc1Nc1c(C)cc(C)cc1C`: the IC50 in test [2] is 5.8 nM; in test [3], 35 nM; in test [7] (setting [8]), 106 nM; in test [1], 2.5 nM; in test [4], above 100000 nM; in test [5], 29 nM. Besides, in test [6], the IC50 is 36 nM.
Consider `Cc1cnc(Nc2ccc(C#N)cc2)nc1Nc1c(C)cc(C#N)cc1C`, for which the IC50 in test [2] was 1.7 nM; in test [3], 16 nM; in test [7] (setting [8]), 162 nM; in test [1], 0.8 nM; in test [4], above 10000 nM; in test [5], 16 nM. Also, 12 nM corresponded to half-maximal inhibition in test [6] (IC50).
For `Cc1cc(Br)cc(C)c1Oc1ccnc(Nc2ccc(C#N)cc2)n1`, the IC50 was 4.7 nM in test [2]; 113 nM in test [3]; 217 nM in test [7] (setting [8]); 2.9 nM in test [1]; 2370 nM in test [4]; 79 nM in test [5]. Besides, in test [6], the IC50 was 59 nM.
For `Cc1cccc(C)c1Nc1ccnc(Nc2ccc(C#N)cc2)n1`, the half-inhibitory concentration (IC50) was 28 nM in test [2]; 212 nM in test [3]; 0.7 nM in test [1]; above 10000 nM in test [4]; 260 nM in test [5]; 61 nM in test [6].
Consider `Cc1cc(Br)c(Nc2ccnc(Nc3ccc(C#N)cc3)n2)c(Br)c1`, for which the IC50 is 3 nM in test [2]; 3 nM in test [3]; 133 nM in test [7] (setting [8]); 0.7 nM in test [1]; above 100000 nM in test [4]; above 100000 nM in test [5]. The concentration for half-maximal inhibition (IC50) in test [6] was 3.4 nM.
`Cc1cc(C#N)cc(C)c1Nc1nc(Nc2ccc(C#N)cc2)ncc1Cl`: the concentration for half-maximal inhibition (IC50) was 0.9 nM in test [2]; 5.2 nM in test [3]; 69 nM in test [7] (setting [8]); 1.2 nM in test [1]; 144 nM in test [4]; 4.7 nM in test [5]. In addition, the IC50 in test [6] amounted to 14 nM.
With `N#Cc1ccc(Nc2cc(Cc3c(Cl)cccc3Cl)nc(N)n2)cc1`, the IC50 in test [2] was 33300 nM; in test [3] it was 96600 nM; in test [1], 10 nM; in test [5] it was above 100000 nM; in test [6] it was above 100000 nM.
As to `Cc1cc(C)c(Nc2nc(Nc3ccc(C#N)cc3)ncc2C)c(C)c1`, the half-maximal inhibitory concentration (IC50) in test [2] is 2.6 nM; in test [3], 12 nM; in test [7] (setting [8]) it was 53 nM; in test [1], 1.7 nM; in test [4] it was above 100000 nM; in test [5], 18 nM. The molecule also showed a half-maximal inhibitory concentration (IC50) in test [6] of 12 nM.
As to `Cc1cc(C#N)cc(C)c1Oc1nc(Nc2ccc(C#N)cc2)ncc1Br`, the IC50 in test [2] worked out at 1.4 nM; in test [3], 6.6 nM; in test [7] (setting [8]), 25 nM; in test [1], 1.4 nM; in test [4], 49 nM; in test [5], 5.9 nM. The molecule also displayed an IC50 in test [6] of 22 nM.
As for `Cc1cc(C#N)cc(C)c1Nc1nc(Nc2ccc(C#N)cc2)ncc1C#N`, the half-inhibitory concentration (IC50) in test [2] amounted to 2.6 nM; in test [3] it was 91 nM; in test [7] (setting [8]), 181 nM; in test [1], 0.5 nM; in test [4], 312 nM; in test [5], 8.6 nM. This molecule returned an IC50 in test [6] of 76 nM.
For `Cc1cc(C)c(Nc2nc(Nc3ccc(C#N)cc3)ncc2Cl)c(C)c1`, the IC50 in test [2] stood at 6 nM; in test [3], 17 nM; in test [7] (setting [8]), 138 nM; in test [1], 2.7 nM; in test [4] it was 319 nM; in test [5] it was 34 nM. In addition, the midpoint of inhibition in test [6], the IC50, lay at 32 nM.
With `Cc1cc(C#N)cc(C)c1Oc1nc(Nc2ccc(C#N)cc2)ncc1[N+](=O)[O-]`, the concentration for half-maximal inhibition (IC50) is 10 nM in test [2]; 121 nM in test [3]; 194 nM in test [7] (setting [8]); 18 nM in test [1]; above 10000 nM in test [4]; 782 nM in test [5]. In test [6], this molecule showed an IC50 of 304 nM.
For `Cc1cc(C#N)cc(C)c1Nc1nc(Nc2ccc(C#N)cc2)ncc1Br`, the half-inhibitory concentration (IC50) in test [2] amounted to 0.4 nM; in test [3] it was 7 nM; in test [7] (mt4), 32 nM; in test [1], 0.4 nM; in test [4], 37 nM; in test [5], 3.3 nM. The same molecule returned a 50% inhibitory concentration (IC50) in test [6] of 9.6 nM.
As to `Cc1cc(Cl)cc(C)c1Nc1ccnc(Nc2ccc(C#N)cc2)n1`, the half-inhibitory concentration (IC50) in test [2] was 13 nM; in test [3], 327 nM; in test [7] (setting [8]), 401 nM; in test [1], 2.1 nM; in test [4], above 10000 nM; in test [5], 115 nM. Besides, 19 nM corresponded to half-maximal inhibition in test [6] (IC50).
As to `Cc1cc(C)c(Sc2ccnc(Nc3ccc(C#N)cc3)n2)c(C)c1`, the IC50 came to 12 nM in test [2]; 54 nM in test [3]; 3.6 nM in test [1]; 4790 nM in test [4]; 20 nM in test [5]; 25 nM in test [6].
Regarding `Cc1cc(Br)cc(C)c1Nc1ccnc(Nc2ccc(C#N)cc2)n1`, the half-maximal inhibitory concentration (IC50) was 12 nM in test [2]; 76 nM in test [3]; 150 nM in test [7] (setting [8]); 2.3 nM in test [1]; above 100000 nM in test [4]; 69 nM in test [5]. Further, the IC50 in test [6] is 17 nM.
With `C#Cc1cnc(Nc2ccc(C#N)cc2)nc1Nc1c(C)cc(C)cc1C`, the figures for the concentration for half-maximal inhibition (IC50) in test [2], in test [7] (setting [8]) and in test [4] were 6.2 nM, 42 nM and 71 nM, respectively.
In the case of `Cc1cc(C)c(Nc2nc(Nc3ccc(C#N)cc3)ncc2Br)c(C)c1`, the 50% inhibitory concentration (IC50) in test [2] turned out to be 7.3 nM; in test [3], 11 nM; in test [7] (setting [8]) it was 283 nM; in test [1], 5.5 nM; in test [4], 348 nM; in test [5] it was 27 nM. Also, the half-maximal inhibitory concentration (IC50) in test [6] came out at 36 nM.
Consider `Cc1cc(C#N)cc(C)c1Oc1nc(Nc2ccc(C#N)cc2)ncc1Cl`, for which the IC50 in test [2] worked out at 2.6 nM; in test [3] it was 7.5 nM; in test [7] (setting [8]), 38 nM; in test [1] it was 1.4 nM; in test [4], 138 nM; in test [5], 4.8 nM. In test [6], 34 nM corresponded to half-maximal inhibition (IC50).
`CC(=O)Nc1cnc(Nc2ccc(C#N)cc2)nc1Oc1c(C)cc(C#N)cc1C`: the concentration for half-maximal inhibition (IC50) came out at 3.3 nM in test [2], 30 nM in test [7] (setting [8]) and 205 nM in test [4].
On to `Cc1cc(C#N)cc(C)c1Oc1nc(Nc2ccc(C#N)cc2)ncc1N`, for which the IC50 came to 1.3 nM in test [2]; 16 nM in test [3]; 14 nM in test [7] (setting [8]); 1 nM in test [1]; 282 nM in test [4]; 5.7 nM in test [5]. The same molecule showed a half-inhibitory concentration (IC50) in test [6] of 9.3 nM.
As for `Cc1cc(Br)cc(C)c1Sc1ccnc(Nc2ccc(C#N)cc2)n1`, the half-maximal inhibitory concentration (IC50) in test [2] turned out to be 39 nM; in test [3], 174 nM; in test [7] (setting [8]) it was 354 nM; in test [1] it was 5.7 nM; in test [4], 3890 nM; in test [5] it was 44 nM. This molecule returned an IC50 in test [6] of 68 nM.
Regarding `C#Cc1cc(C)c(Oc2ccnc(Nc3ccc(C#N)cc3)n2)c(C)c1`, the IC50 is 12 nM in test [2]; 185 nM in test [3]; 793 nM in test [7] (setting [8]); 5.5 nM in test [1]; 4190 nM in test [4]; 50 nM in test [5]. The molecule also gave an IC50 in test [6] of 171 nM.
Turning to `N#Cc1ccc(Nc2nccc(Nc3c(Cl)cc(Cl)cc3Cl)n2)cc1`, the half-inhibitory concentration (IC50) is 3 nM in test [2]; 14 nM in test [3]; 0.7 nM in test [1]; above 10000 nM in test [4]; 99 nM in test [5]; 10 nM in test [6].
Take `Cc1cc(C)c(Nc2nc(Nc3ccc(C#N)cc3)ncc2C#N)c(C)c1`: the half-maximal inhibitory concentration (IC50) in test [2] was 3.4 nM; in test [3], 63 nM; in test [1], 1 nM; in test [5] it was 77 nM; in test [6], 40 nM.
Regarding `N#Cc1ccc(Nc2cc(N)nc(Cc3c(Cl)cccc3Cl)n2)cc1`, the IC50 in test [2] is above 100000 nM; in test [3], above 100000 nM; in test [1] it was 452 nM; in test [5] it was above 100000 nM; in test [6] it was above 100000 nM.
With `N#Cc1ccc(Nc2nc(N)cc(Cc3c(Cl)cccc3Cl)n2)cc1`, the 50% inhibitory concentration (IC50) in test [2] is 12 nM; in test [3], 299 nM; in test [1], 1 nM; in test [5], 71 nM; in test [6], 175 nM.
As for `CC(C)Nc1cccnc1N1CCN(C(=O)c2cc3cc(NS(C)(=O)=O)ccc3[nH]2)CC1` [DELAVIRDINE], the IC50 was determined as 2510 nM in test [2]; 2510 nM in test [3]; 20000 nM in test [7] (setting [8]); 63 nM in test [1]; 1260 nM in test [5]; 2000 nM in test [6].
